Source: the METLIN SMRT retention time set (Domingo-Almenara et al. 2019)

Test: gradient 5% acetonitrile 3 min, to 50% in 2 min, to 85% in 15 min, held 3 min, 100 µL/min
Details: column: Zorbax Extend-C18 2.1 x 50 mm; eluents: water / acetonitrile, 0.1% formic acid
Summary of the method: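 Retention times come from adduct peaks that were picked computationally and then checked by hand. The standards, pure and pooled in mixtures of ~100 molecules, were run on a Zorbax Extend-C18 column (2.1 × 50 mm, 1.8 μm) at 100 μL/min with water and acetonitrile, each with 0.1% formic acid. Detection was by quadrupole time-of-flight mass spectrometry in positive and negative ionization mode, with a dead volume of 40 μL and a dwell volume of 900 μL.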

SMILES	RP-LC retention time
O=C(NC1CCCC1)C1CCc2sc(C(=O)N3CCCCCC3)cc2C1 (centres undefined)	900 s
CCCC(=O)Nc1ccc(-n2cnc(C(=O)NCC)c2)nc1	634 s
CCC1(C(=O)Nc2ccc(C)c(F)c2)CCCCC(=O)N1 (centres undefined)	771 s
CC(C)C1c2nccn2CCCN1C(=O)Cn1c(=O)oc2ccccc21 (centres undefined)	603 s
O=C1NCCCCCCN(C(=O)c2cnccn2)[C@H]2CCCC[C@@H]12	684 s
Cc1ccc(-n2ccc(=O)c(-c3nc(-c4ccc(Cl)cc4)no3)n2)cc1	1030 s
Cc1nc2c(ccc3nc(NC(=O)CN4C(=O)c5ccccc5C4=O)sc32)s1	780 s
Cc1nnc(-c2nnc(N3CCC(C)CC3)c3ccccc23)o1	824 s
CCCn1cc(CCNC(=O)C2CC2)c2cccnc21	621 s
COc1ccccc1-c1noc(C2CCCN2C(=O)NC(C)C)n1 (centres undefined)	753 s
Cc1sc(NC(=O)c2ccccc2Cl)nc1-c1ccc2c(c1)NC(=O)C(C)O2 (centres undefined)	914 s
O=C(CSc1nnc2c3sc(N4CCCC4)nc3ncn12)Nc1ccc(F)cc1Cl	869 s
O=C(NCCCN1CCOCC1)C1CCCN(c2ncnc3c2nc2n3CCCCC2)C1 (centres undefined)	580 s
CNC(=O)C1CCN(C(=O)Nc2ccc(NC(=O)Nc3ccc(C)cc3C)cc2)CC1	673 s
Cc1ccc(NC(=O)N2C[C@H](c3nc(-c4ccncc4)no3)[C@@H](C)C2)cc1	795 s
CCOc1ccc(CCNC(=O)C2CCCN(c3nnc(C)c4c(C)n(-c5ccccc5)nc34)C2)cc1 (centres undefined)	759 s
Cc1ccc2c(=O)cc(C(=O)NCC(c3ccccc3)N(C)C)oc2c1C (centres undefined)	636 s
CCn1cc(-c2nc(-c3ccc(F)cc3)no2)c(=O)c2cc(F)c(N3CCOCC3)cc21	951 s
CN1C(=O)c2cccnc2Sc2cc(NC(=O)c3cccs3)ccc21	745 s
Cc1c(C(=O)NC2CCCCC2)cnn1-c1cc(-c2nc(C3CC3)no2)ccn1	1060 s
CCOc1ccc(CCNC(=O)C2CCCN(c3ncnc4c3nc3n4CCCCC3)C2)cc1 (centres undefined)	807 s
Cn1c(C(=O)NCCCN2CCCCCC2)cc2c(-c3cccs3)nn(-c3ccccc3)c21	795 s
O=C(Cn1c(=O)c(CCC(=O)NC2CC2)nc2ccccc21)Nc1ccccc1Br	712 s

SMILES	RP-LC retention time
O=C(NCc1ccco1)N1CCN(c2nc3cccnc3n(Cc3ccccc3)c2=O)CC1	935 s
CCOC(=O)c1cc([N+](=O)[O-])sc1NC(=O)CC	915 s
c1ccc(-c2oncc2CN2CCN(c3ccccn3)CC2)cc1	603 s
O=C(NCCn1nc(-c2cccs2)ccc1=O)c1cc(-c2cccs2)[nH]n1	573 s
O=C(CC1CCCN(c2cn[nH]c(=O)c2)C1)N1CCC2(CC1)OCCO2 (centres undefined)	604 s
COc1ccc(C(=O)NC2CCN(c3ccc(=O)[nH]n3)C2)c(OC)n1 (centres undefined)	660 s
Cc1ncsc1CN1CCCC(n2c(C)cnc2-c2cccnc2)C1 (centres undefined)	527 s
CCCNC(=O)C1CCCN(S(=O)(=O)c2cc(-c3noc(CC)n3)cs2)C1 (centres undefined)	841 s
CCOc1ccc(NC(=O)CCSc2nnc(C)s2)cc1	709 s
Cc1nn(C(C)C(=O)NCCCN2CCc3ccccc3C2)c(=O)c2nn(-c3ccccc3)c(C)c12 (centres undefined)	667 s
CCOCCCNC(=O)c1cn(CC)nc1S(=O)(=O)N1CCN(c2cccc(Cl)c2)CC1	1030 s
COc1ccccc1-c1coc2cc(OC(=O)c3cccc([N+](=O)[O-])c3)ccc2c1=O	1010 s
CC(=O)N1CCc2cc(N3CC(C(=O)Nc4ccccc4C(C)C)CC3=O)ccc21 (centres undefined)	728 s
COc1ccc(NC(=O)Cc2csc3nc(-c4cccc(Br)c4)cn23)cc1	937 s
CC(C)c1nc2c(NC(=O)c3ccsc3)cccn2n1	866 s
Cc1ccc(NC(=O)Cn2ncc3c(c2=O)N(C2CC2)C(=O)CS3)cc1C	732 s
O=S(=O)(c1cccc(-c2nnc(-c3ccc(Cl)cc3)o2)c1)N1CCOCC1	995 s
Cc1ccc(NC(=O)C2CCN(S(=O)(=O)c3ccc4c(c3)sc(=O)n4C)CC2)nc1	697 s
CCC1Oc2ccc(S(=O)(=O)N3CCC(C(=O)N(C)Cc4ccccc4)CC3)cc2NC1=O (centres undefined)	872 s
O=C(Cn1cccc(-c2nc(-c3ccccc3)no2)c1=O)Nc1ccc2c(c1)OCO2	815 s
Cc1ccc(S(=O)(=O)c2nnn3c2nc(N2CCN(c4ccccn4)CC2)c2ccccc23)cc1	711 s
CCN1C(=O)COc2ccc(-c3noc(C4CC(=O)N(c5ccc(C)cc5)C4)n3)cc21 (centres undefined)	878 s
O=C(c1ccnnc1)N1CC(F)(F)C[C@H]1c1nnc(-c2ccccc2)o1	696 s

SMILES	RP-LC retention time
Cc1c2cnn(-c3ccccc3)c(=O)c2c(C)n1C(C)C(=O)NCCCN1CCN(C)CC1 (centres undefined)	581 s
CCOc1ccc(OCC)c(NC(=O)c2cn3c4c(ccc(Cl)c4c2=O)OCC3)c1	1100 s
O=C(NCc1ccc(F)cc1)N1CCC(c2noc(C3CC3)n2)C1 (centres undefined)	751 s
Cc1ccn2cc(-c3ccc(NS(=O)(=O)c4ccc(Cl)cc4)cc3)nc2n1	679 s
CCOC(=O)Cc1csc(NC(=O)c2ccc(-c3nc4ccccc4s3)s2)n1	1010 s
Cc1ccccc1CNC(=O)c1cn(-c2cc(-c3nc(C4CC4)no3)ccn2)cn1	982 s
Cc1ccc(Nc2nc(-c3ccc(C)cc3)c(CC(=O)O)s2)cc1	946 s
CN(C)c1ccc(C(CNC(=O)CN2C(=O)c3ccccc3C2=O)N2CCCC2)cc1 (centres undefined)	559 s
Cc1ccccc1OCc1nc(-c2ccc3ncn(C(C)C)c3c2)no1	839 s
COc1ccccc1OCCNC(=O)C1CCN(c2nnc3ccc(Cl)cn23)CC1	707 s
Cc1cccc(NC(=O)Nc2c(-c3ccc(F)cc3)nc3ccccn23)c1	695 s
CCc1nc2cc3c(cc2n1CC(=O)N1CCCCC1)OCCO3	600 s
COCC(=O)NC1CCC12CCN(C(=O)C1CCOCC1)CC2 (centres undefined)	603 s
COc1ccc(S(=O)(=O)N2CCN(c3cc(C)nc(NC4CCCCC4)n3)CC2)cc1OC	756 s
Cc1ccccc1Nc1c(-c2cccc(Br)c2)nc2cnccn12	1040 s
Cc1ccc(Cl)cc1N1CCN(c2cc(C(=O)O)c3cc(NC(=O)C4CCCC4)ccc3n2)CC1	851 s
Cc1ccc(-c2nnc(Cc3nc(-c4ccc(F)c(F)c4)no3)o2)cc1F	1110 s
O=c1c2sccc2n(Cc2nc(-c3cccc(Br)c3)no2)c(=O)n1-c1ccccc1	1050 s
CCNC(=O)c1cnn(-c2cc(-c3nc(C(C)C)no3)ccn2)c1C	858 s
Cc1cc2nn(CC(=O)NCC3CCCO3)c(=O)n2c(Nc2ccc(F)cc2)n1 (centres undefined)	722 s
CS(=O)(=O)Nc1ccc(-c2noc(CNC(=O)Cc3ccccc3)n2)cc1	722 s
CCN(CC)CCNC(=O)C1CCN(C2=NS(=O)(=O)C(c3ccc(Cl)cc3)=C2C)CC1	658 s
Cc1ccc(CNC(=O)C2(C)CCN(S(=O)(=O)c3ccc(Br)s3)CC2)cc1	1050 s

SMILES	RP-LC retention time
COc1ccc(-c2cc(C(=O)N3CCN(S(=O)(=O)c4ccc(Cl)cc4)CC3)[nH]n2)cc1	909 s
CCn1c(C)c(-c2nc(C3CC3)no2)c(S(=O)(=O)NCC(C)C)c1C	930 s
CCOC(=O)C1=C(O)C(=O)N(c2ccccc2)C1c1ccccc1 (centres undefined)	881 s
CCc1nc(N)n(CC(=O)Nc2ccc(C)cc2C)c(=O)c1C	659 s
CNC(=O)c1c(C)c(-c2ccccc2)n(C)c1C	812 s
Cc1ccc(S(=O)(=O)NCC2CN(CC3CC3)CC23CCCCC3)c(C)c1 (centres undefined)	767 s
CN(Cc1cccs1)C(=O)NC(C)(C)C	817 s
COC(=O)CC1=CC(SCC(=O)N2CCN(c3ccccc3)CC2)=Nc2ccccc2N1	1080 s
N#CCNC(=O)C1CC(=O)N(CCc2c[nH]c3ccc(F)cc23)C1 (centres undefined)	661 s
COc1cc(-c2nc3ncccn3c2NCc2ccc(C)cc2)cc(OC)c1OC	746 s
COc1ccccc1NC(=O)c1cn2c(n1)CCCC2	622 s
CS(=O)(=O)N1CCc2ccc(C(=O)NCCN3CCC(N4CCCCC4)CC3)cc21	583 s
O=C(c1cnn2cccnc12)N1CCCC1c1ccccc1Cl (centres undefined)	763 s
O=C(C1CCN(c2nccnc2Sc2ccccc2)CC1)N1CCN(c2ccccn2)CC1	682 s
Cc1oc(-c2[nH]ncc2C(=O)N2CCCC2)cc1S(=O)(=O)NCc1ccc(Cl)cc1	737 s
O=C(NCc1ccccc1F)C1CCCN(c2nc3ccccc3n(Cc3ccccc3)c2=O)C1 (centres undefined)	1150 s
Cc1nc(N2CCCCC2)cc(N2CCN(C(=O)c3ccc(Br)o3)CC2)n1	689 s
CCOC(=O)c1[nH]c(C)c(CCC(=O)N2CCC(C(=O)NCc3ccc(C)cc3)CC2)c1C	826 s
COc1ccccc1CCC(=O)NCc1ccc2c(c1)ncn2C	595 s
Cn1cc2c3c(cccc31)CN(C(=O)c1ccccc1F)CC2	875 s
